Measured values as given in patent US20240299347A1, “METHODS AND COMPOSITIONS TO TREAT HUNTINGTON'S DISEASE BY TARGETING ALOX5- MEDIATED FERROPTOSIS” (The Trustees of Columbia University in the City of New York, priority 2023, published 2024).

Assays:
[1] = tested on: mHTT-mediated ferroptosis; assay: mHTT-mediated ferroptosis (summary statement); assay type: cell-based; settings: general statement
[2] = tested on: HTTQ94 Tet-on HT-22 cells; assay: Cell death assay, HTTQ94 Tet-on HT-22 cells treated with glutamate; assay type: cell-based, mouse; settings: doxycycline 0.5 μg/ml and glutamate 10 mM, 20 h; for effect of inhibitor on HTTQ94-mediated ferroptosis upon glutamate induction: Ferr-1 2 μM, Zileuton 10 μM
Method: (G) Cell death assay in HTTQ94 Tet-on HT-22 cells. Cells were transfected with control siRNA (ctrl) or ALOX5 siRNA, followed by incubation with doxycycline (0.5 μg/ml) and glutamate (10 mM) for 16 h in the presence or absence of Ferr-1 (2 μM). Cell death were calculated from three replicates; Data shown in (A), (C), (E) and (G) are means±SD. P-values were derived from two-tailed unpaired t-test.
(E) Cell death assay. The HTTQ94 Tet-on HT-22 cells were treated with doxycycline (0.5 μg/ml) and glutamate (10 mM) in the presence or absence of Ferr-1(2 μM) or Zileuton (10 μM) for 20 h. […] Data shown in (B), (C), (D) and (E) are are means±SD. P-values were derived from two-tailed unpaired t-test.
Cells were plated at 20˜30% density one day prior to siRNAs transfection.
Cells were treated with ferroptosis inducer TBH or erastin or glutamate combined with other drugs or conditions. At indicated time points, cells were trypsinized and stained with trypan blue followed by counting with a hemocytometer using the cell number counter (Life technologies countess II). Living cells and dead cells were all counted, and cells stained blue were considered as dead cells.

[3] = tested on: HTTQ94 Tet-on HT-22 cells; assay: Cell death assay, HTTQ94 Tet-on HT-22 cells under ROS stress (TBH); assay type: cell-based, mouse; settings: for effect of inhibitor on HTTQ94-mediated cell death upon ROS stress: then TBH 10 μM 8 h, Ferr-1 2 μM, Lipro-1 2 μM, DFO 100 μM, zVAD 10 μM, 3 MA 2 mM, Nec1 10 μM, Zileuton 10 μM, MK886 10 μM
Method: (A) Representative phase-contrast images of cell death from the HTTQ94 tet-on HT-22 cells. HTTQ94 Tet-on HT-22 cells were pre-incubated with doxycycline (0.5 μg/ml) for 4 h, and then treated with TBH (10 μM) for 8 h in the presence or absence of the ferroptosis inhibitors (ferrostatin-1, Ferr1, 2 μM; liproxstatin-1, Lipor1, 2 μM and DFO, 100 μM), apoptosis inhibitor (Z-VADFMK, zVAD, 10 μM), autophagy inhibitor (3-methylademine, 3 MA, 2 mM) or necroptosis inhibitor (necrostatin-1, Nec1, 10 μM). (B) Quantification of cell death, related to panel A. Three replicates for each group. […] Cell death were calculated from three replicates; Data shown in (B), (C), and (E) are means±SD. P-values were derived from two-tailed unpaired t-test. (***) P≤0.001, (**) P≤0.01, (*) P≤0.05, (n.s.) P >0.05.

[4] = tested on: HT-22 HTTQ94 inducible cells; assay: TfR1 immunofluorescence staining of ferroptotic cells; assay type: cell-based, mouse; settings: doxycycline 1 μg/ml O/N
Method: FIGS. 13A-D. TfR1 staining is able to specifically recognize ferroptotic cells induced by HTTQ94 expression. (A) Limb clasping analysis in HD and HD/Alox5null mice (9-, 11- and 13-week-old). p<0.01, n=7. (B-D), TfR1 staining in HT-22 HTTQ94 inducible cells upon TBH treatment. HT-22 HTTQ94 inducible cells were treated 1 μg/ml doxycycline O/N to induce HTTQ94 expression, followed by treatment with 30 μM TBH for 6 h, and then cells were stained with TfR1 antibody. (B) Representative images of TfR1 staining. (C) Quantification of TfR1 staining. (D) Cell death assay, related to panel B. Data shown in (A) are means±SD. Data shown in (C) and (D) are means±SEM. P-values were derived from two-tailed unpaired t-test. (***) P<0.001, (**) P≤0.01, (*) P<0.05, (n.s.) P >0.05.
For cell line: HT-22 HTTQ94 inducible cells were fixed with 2% paraformaldehyde at RT for 20 min, and then incubated with blocking buffer (10% donkey serum, 0.3% Triton X-100 in PBS), followed by incubation with TfR1 antibody (1: 250, Thermo Fisher Scientific, Cat #13-6800) for 1 h, and then incubation with Alexa 568 conjugated secondary antibody (1:250, Thermo Fisher Scientific, Cat #A11004) for additional 1 h.

[5] = tested on: cellular models of Huntington's disease (HD); settings: Skouta et al. 2014; cited from earlier work
[6] = tested on: HTTQ94 Tet-on HT-22 cells; assay: Cell death assay, HTTQ94 Tet-on HT-22 cells treated with erastin; assay type: cell-based, mouse; settings: doxycycline 0.5 μg/ml 4 h, then Erastin 1 μM 12 h; Ferr-1 2 μM, ROSI 10 μM, TRO 10 μM
Method: (B) HTTQ94 Tet-on HT-22 cells were pre-incubated with doxycycline (0.5 μg/ml) for 4 h, and then treated with Erastin (1 μM) for 12 h with/without Ferr-1 (2 μM). […] (E) Cell death assay. Control, HTTQ94 and HTTQ19 fragment Tet-on H1299 cells pre-incubated with doxycycline (0.5 μg/ml) for 16 h were treated with Erastin (30 μM) for 48 h with/without Ferr-1 (2 μM). Cell death were calculated from three replicates; Data shown in (B) and (E) are the means±SD. P-values were derived from two-tailed unpaired t-test. (***) P≤0.001, (**) P≤0.01, (*) P≤0.05, (n.s.) P >0.05.
(A) Cell death assay. HTTQ94 Tet-on HT-22 cells pre-incubated with doxycycline (0.5 μg/ml) for 4 h were treated with Erastin (1 μM) for 12 h in the presence or absence of ferrostatin-1 (Ferr-1, 2 μM) or ACSL4 inhibitors (rosiglitazone, ROSI, 10 μM; troglitazone, TRO, 10 μM). (B) Cell death assay. […] Cell death were calculated from three replicates. […]
Cells were treated with ferroptosis inducer TBH or erastin or glutamate combined with other drugs or conditions. […] Living cells and dead cells were all counted, and cells stained blue were considered as dead cells. Quantification of cell death was further confirmed using ToxiLight Non-destructive Cytotoxicity BioAssay Kit (LT07-117; Lonza). Data were collected using GloMax® Explorer Multimode Microplate Reader (Promega).

**Q.** For CC(c1cc2ccccc2s1)N(O)C(N)=O (racemic) [Zileuton, (±)-1 (1-Benzo[b]thien-2-ylethyl)-1-hydroxyurea], which “block of mHTT-mediated ferroptosis” value [1] is on record?
**A.** Its value is “effectively blocked”.

**Q.** And the “effect of inhibitor on HTTQ94-mediated ferroptosis upon glutamate induction” value [2]?
**A.** The value was “completely blocked”.

**Q.** Which “effect of inhibitor on HTTQ94-mediated cell death upon ROS stress” value ([3]; doxycycline 0.5 μg/ml 4 h) does the source give for CC(=O)N(O)CCCCCNC(=O)CCC(=O)N(O)CCCCCNC(=O)CCC(=O)N(O)CCCCCN [DFO] here?
**A.** Its value is “specifically blocked”.

**Q.** Which “effect of inhibitor on HTTQ94-mediated cell death upon ROS stress” value ([3]; doxycycline 0.5 μg/ml 4 h) does the source give for Clc1cccc(CN=C2Nc3ccccc3NC23CCNCC3)c1 [Lipro-1, liproxstatin-1] here?
**A.** The value was “specifically blocked”.

**Q.** Which “levels of anti-TfR1 antibody staining cells with inducer upon HTTQ94 induction” value ([4]; TBH 30 μM 6 h) does the source give for CC(C)(C)OO [TBH, tert-butyl hydroperoxide] here?
**A.** The value was “dramatically increased”.

**Q.** What about the “cell death induced by inducer alone” value ([3]; TBH 10 μM 8 h, no HTTQ94 induction) of the same compound?
**A.** The value was “failed to induce any cell death”.

**Q.** What about the “cell death induced by inducer combined with HTTQ94 expression” value ([3]; doxycycline 0.5 μg/ml 4 h, TBH 10 μM 8 h) of the same compound?
**A.** The value was “high levels of cell death”.

**Q.** With CCOC(=O)c1ccc(NC2CCCCC2)c(N)c1 [ferrostatin-1] as the compound, how does the “rescue of cell death” value [5] read?
**A.** The value was “significantly rescued”.

**Q.** What about the “effect of inhibitor on HTTQ94-mediated cell death (ferroptosis) upon erastin” value [6] of the same compound?
**A.** The value was “completely inhibited”.

**Q.** What about the “effect of inhibitor on levels of anti-TfR1 antibody staining” value ([4]; then TBH 30 μM 6 h, with Ferr-1) of the same compound?
**A.** The value was “abolished”.

**Q.** What about the “effect of inhibitor on HTTQ94-mediated ferroptosis upon glutamate induction” value [2] of the same compound?
**A.** The value was “inhibited”.

**Q.** What about the “effect of inhibitor on HTTQ94-mediated cell death upon ROS stress” value ([3]; doxycycline 0.5 μg/ml 4 h) of the same compound?
**A.** Its value is “specifically blocked”.

**Q.** Which “cell death induced by inducer upon HTTQ94 expression” value [2] does the source give for N[C@@H](CCC(=O)O)C(=O)O [glutamate] here?
**A.** The value was “high levels of cell death”.
